Reference: ChEMBL document CHEMBL1201862, “PubChem BioAssay data set” (2004)
“And” between values parts separate entries of the source, which are not always exact repeats. Identical values can stand only once.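 Cultured in 96-well plates, cells were exposed to test compound for 48 hours across five concentrations. Here, GI50 denotes the concentration required for 50% inhibition of growth.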 The source made the active and inactive calls. Cut-off read from the data, not from the text of the source: active = GI50 up to about 1.1 µM and inactive = higher.

Assays:
Experiment in all cases: growth of human tumour cells (NCI), 48 h
[1] = test system: U-251
[2] = test system: RPMI-8226
[3] = test system: SW-620
[4] = test system: M14
[5] = test system: HL-60
[6] = test system: MOLT-4
[7] = test system: SF-268
[8] = test system: MDA-MB-435
[9] = test system: RXF 393
[10] = test system: HCT-15
[11] = test system: NCI-H460
[12] = test system: IGROV-1
[13] = test system: NCI/ADR-RES
[14] = test system: HOP-62
[15] = test system: SK-MEL-28
[16] = test system: ACHN
[17] = test system: NCI-H226
[18] = test system: OVCAR-3
[19] = test system: UACC-62
[20] = test system: SK-OV-3

Compound	GI50 [1]	GI50 [2]	GI50 [3]	GI50 [4]	GI50 [5]	GI50 [6]	GI50 [7]	GI50 [8]	GI50 [9]	GI50 [10] [µM]	GI50 [11]	GI50 [12]	GI50 [13]	GI50 [14]	GI50 [15]	GI50 [16]	GI50 [17]	GI50 [18]	GI50 [19]	GI50 [20]
N#C/N=C1/c2ccccc2/C(=N/C#N)c2cc(CO)ccc21	34.4 µM (inactive)	2.95 µM (inactive)	25.6 µM (inactive)	48.2 µM (inactive)	21.6 µM (inactive)	16.4 µM (inactive)	39.2 µM (inactive)	27.4 µM (inactive)	27.6 µM (inactive)	27.2	12.5 µM (inactive)	29.4 µM (inactive)	28.5 µM (inactive)	42.6 µM (inactive)	43 µM (inactive)	24.7 µM (inactive)	37.8 µM (inactive)	26.9 µM (inactive)		
Oc1cccc2ccc(Br)nc12	> 100 µM (inactive)	97.9 µM (inactive)	> 100 µM (inactive)	> 100 µM (inactive)	36.2 µM (inactive)	> 100 µM (inactive)	> 100 µM (inactive)	> 100 µM (inactive)	> 100 µM (inactive)	> 100	> 100 µM (inactive)	> 100 µM (inactive)	> 100 µM (inactive)	> 100 µM (inactive)	> 100 µM (inactive)	> 100 µM (inactive)	> 100 µM (inactive)	> 100 µM (inactive)	> 100 µM (inactive)	> 100 µM (inactive)
CCCOC(=O)C1C2CCC(O2)C1C(=O)O (configuration not stated)	> 100 µM (inactive)	> 100 µM (inactive)	> 100 µM (inactive)	> 100 µM (inactive)	> 100 µM (inactive)	> 100 µM (inactive)	> 100 µM (inactive)	> 100 µM (inactive)	> 100 µM (inactive)	> 100		> 100 µM (inactive)	> 100 µM (inactive)	> 100 µM (inactive)	> 100 µM (inactive)	> 100 µM (inactive)	> 100 µM (inactive)	> 100 µM (inactive)	> 100 µM (inactive)	61 µM (inactive)
CC(=O)N1C(Nc2cccc3nc(C)ccc23)CCN1c1ccccc1 (configuration not stated)		> 10 µM (inactive)	5.73 µM (inactive)	> 10 µM (inactive)	8.2 µM (inactive)	> 10 µM (inactive)	> 10 µM (inactive)	> 10 µM (inactive)	> 10 µM (inactive)	7.98	> 10 µM (inactive)	> 10 µM (inactive)	> 10 µM (inactive)	> 10 µM (inactive)	> 10 µM (inactive)	> 10 µM (inactive)	> 10 µM (inactive)	> 10 µM (inactive)		> 10 µM (inactive)
CNC(=S)N/N=C(\C)c1cc(OC)c(OC)cc1O	> 100 µM (inactive)	> 100 µM (inactive)	> 100 µM (inactive)	> 100 µM (inactive)	0.0556 µM (active)	> 100 µM (inactive)	> 100 µM (inactive)	> 100 µM (inactive)	> 100 µM (inactive)	> 100	> 100 µM (inactive)	> 100 µM (inactive)	> 100 µM (inactive)	> 100 µM (inactive)	> 100 µM (inactive)	> 100 µM (inactive)		> 100 µM (inactive)	> 100 µM (inactive)	> 100 µM (inactive)
Cc1ccc(Nc2n[nH]c(=S)s2)cc1	> 100 µM (inactive)	> 100 µM (inactive)	> 100 µM (inactive)	> 100 µM (inactive)	> 100 µM (inactive)	> 100 µM (inactive)	> 100 µM (inactive)	42.4 µM (inactive)	> 100 µM (inactive)	> 100	> 100 µM (inactive)		> 100 µM (inactive)	> 100 µM (inactive)	> 100 µM (inactive)	> 100 µM (inactive)	> 100 µM (inactive)	> 100 µM (inactive)	> 100 µM (inactive)	> 100 µM (inactive)
CCN(CC)C(=O)N1CN(c2ccccc2)C2(CCN(CCCC3(c4ccc(F)cc4)OCCO3)CC2)C1=O	16.6 µM (inactive)	12.9 µM (inactive)	18 µM (inactive)	40.2 µM (inactive)	12.7 µM (inactive)	10.4 µM (inactive)	20.6 µM (inactive)	18.6 µM (inactive)	14.7 µM (inactive)	15.2			23.6 µM (inactive)	4.26 µM (inactive)	13.8 µM (inactive)	> 10 µM (inactive)	30.5 µM (inactive)	16.4 µM (inactive)	17.4 µM (inactive)	24.4 µM (inactive)
Cc1cn(C2CC(O)C(Cn3nncc3Cn3ccc(=O)[nH]c3=O)O2)c(=O)[nH]c1=O (configuration not stated)	> 100 µM (inactive)	> 100 µM (inactive)	> 100 µM (inactive)	> 100 µM (inactive)	> 100 µM (inactive)	> 100 µM (inactive)	> 100 µM (inactive)	> 100 µM (inactive)	> 100 µM (inactive)	> 100		> 100 µM (inactive)	> 100 µM (inactive)	> 100 µM (inactive)	> 100 µM (inactive)	> 100 µM (inactive)	> 100 µM (inactive)	> 100 µM (inactive)	> 100 µM (inactive)	> 100 µM (inactive)
Cc1cn(CC2=NCCN2)c(=O)[nH]c1=O	> 100 µM (inactive)	> 100 µM (inactive)	> 100 µM (inactive)	> 100 µM (inactive)	> 100 µM (inactive)	> 100 µM (inactive)	> 100 µM (inactive)	> 100 µM (inactive)	> 100 µM (inactive)	> 100	> 100 µM (inactive)	> 100 µM (inactive)	> 100 µM (inactive)	> 100 µM (inactive)	> 100 µM (inactive)	> 100 µM (inactive)	> 100 µM (inactive)		> 100 µM (inactive)	> 100 µM (inactive)
CCOC(=O)C1=C(C)N(Cc2ccc(Cl)cc2Cl)C2(O)C=CC(=O)C3C(=O)N(c4ccccc4)C(=O)C132 (configuration not stated)	1.67 µM (inactive)	0.308 µM (active)	1.32 µM (inactive)	3.27 µM (inactive)	1.46 µM (inactive)	1.41 µM (inactive)	2.38 µM (inactive)	1.81 µM (inactive)	1.32 µM (inactive)	1.52	2.1 µM (inactive)	1.78 µM (inactive)	2.29 µM (inactive)	2.87 µM (inactive)	1.59 µM (inactive)	1.71 µM (inactive)	1.54 µM (inactive)	1.37 µM (inactive)	1.63 µM (inactive)	
Cc1ccc(C(=O)Nc2ccc(CP(=O)(O)O)cc2)cc1NC(=O)c1cccc(N)c1	> 100 µM (inactive)	> 100 µM (inactive)	> 100 µM (inactive)	> 100 µM (inactive)	> 100 µM (inactive)	> 100 µM (inactive)	> 100 µM (inactive)	> 100 µM (inactive)	> 100 µM (inactive)	> 100		> 100 µM (inactive)	> 100 µM (inactive)	> 100 µM (inactive)	> 100 µM (inactive)	> 100 µM (inactive)	> 100 µM (inactive)	> 100 µM (inactive)	> 100 µM (inactive)	> 100 µM (inactive)
COc1cc(OC)nc(NC(=O)NS(=O)(=O)c2cccc3ncn(C)c(=O)c23)n1	> 100 µM (inactive)	> 100 µM (inactive)	> 100 µM (inactive)	> 100 µM (inactive)	> 100 µM (inactive)	> 100 µM (inactive)	> 100 µM (inactive)	> 100 µM (inactive)	> 100 µM (inactive)	> 100		> 100 µM (inactive)	> 100 µM (inactive)	> 100 µM (inactive)		> 100 µM (inactive)	> 100 µM (inactive)	> 100 µM (inactive)	> 100 µM (inactive)	> 100 µM (inactive)
CC(=O)O[C@H]1CC2C(C3CC[C@H](C(C)CCC(N)=O)[C@]31C)[C@H](OC(C)=O)C[C@@H]1CC3(CC[C@]21C)OOC1(CCC(C)CC1)OO3 (some centres not stated)	1.66 µM (inactive)	1.61 µM (inactive) and 1.5 µM (inactive)	3.02 µM (inactive) and 2.11 µM (inactive)	2.22 µM (inactive) and 2.94 µM (inactive)	2.32 µM (inactive) and 2.93 µM (inactive)	1.72 µM (inactive) and 1.47 µM (inactive)	1.62 µM (inactive) and 1.83 µM (inactive)	2.06 µM (inactive) and 1.61 µM (inactive)	1.95 µM (inactive) and 2.69 µM (inactive)	1.93	1.62 µM (inactive) and 2.28 µM (inactive)		2.55 µM (inactive) and 1.65 µM (inactive)			1.8 µM (inactive)	1.47 µM (inactive) and 2.09 µM (inactive)	2.07 µM (inactive) and 1.79 µM (inactive)		
N#Cc1nc(-c2ccco2)oc1N		> 10 µM (inactive)	> 10 µM (inactive)	> 10 µM (inactive)	> 10 µM (inactive)	> 10 µM (inactive)	> 10 µM (inactive)	> 10 µM (inactive)	> 10 µM (inactive)	> 10	> 10 µM (inactive)	> 10 µM (inactive)	> 10 µM (inactive)	> 10 µM (inactive)	> 10 µM (inactive)	> 10 µM (inactive)	> 10 µM (inactive)		> 10 µM (inactive)	> 10 µM (inactive)
COc1cc(/C=C2/SC(c3ccccc3)N(c3ccccc3)C2=O)cc(OC)c1OC (configuration not stated)	59.6 µM (inactive)	9.66 µM (inactive)	> 100 µM (inactive)	49.9 µM (inactive)	35.6 µM (inactive)	8.24 µM (inactive)	> 100 µM (inactive)	33.4 µM (inactive)	23.7 µM (inactive)	61.7	76 µM (inactive)		48.2 µM (inactive)	44.8 µM (inactive)	> 100 µM (inactive)	84.3 µM (inactive)	80.4 µM (inactive)	65.6 µM (inactive)	24.4 µM (inactive)	35.8 µM (inactive)
